Legend:
Assay type in all cases: in vivo
Settings in all cases: 250 g/ha, after 13 days
Setaria faberi (SETFA) [1] = assay: B1 Post-Emergence Efficacy Test 1
Description: (§1) Seeds of a variety of test species are sown in standard soil in pots:— Solanum nigrum (SOLNI), Amaranthus retoflexus (AMARE), Setaria faberi (SETFA), Echinochloa crus-galli (ECHCG), Ipomoea hederacea (IPOHE), Lolium perenne (LOLPE). After 8 days cultivation (post-emergence) under controlled conditions in a glasshouse (at 24/16° C., day/night; 14 hours light; 65% humidity), the plants are sprayed with an aqueous spray solution derived from the formulation of the technical active ingredient in acetone/water (50:50) solution containing 0.5% Tween 20 (polyoxyethylene sorbitan monolaurate, CAS RN 9005-64-5). Compounds are applied at 250 g/ha. The test plants are then grown in a glasshouse under controlled conditions in a glasshouse (at 24/16° C., day/night; 14 hours light; 65% humidity) and watered twice daily. After 13 days, the test is evaluated for the percentage damage caused to the plant. The biological activities are assessed on a five point scale (5=80-100%; 4=60-79%; 3=40-59%; 2=20-39%; 1=0-19%). A blank value in the table is indicative that the compound was not tested on that species.

[2] = system: Echinochloa crus-galli (ECHCG); assay: B1 Post-Emergence Efficacy Test 1
Description: as §1

Solanum nigrum (SOLNI) [3] = assay: B1 Post-Emergence Efficacy Test 1
Description: as §1

Lolium perenne (LOLPE) [4] = assay: B1 Post-Emergence Efficacy Test 1
Description: as §1

[5] = system: Amaranthus retoflexus (AMARE); assay: B1 Post-Emergence Efficacy Test 1
Description: as §1

[6] = system: Ipomoea hederacea (IPOHE); assay: B1 Post-Emergence Efficacy Test 1
Description: as §1

Setaria faberi (SETFA) [7] = assay: B3 Pre-Emergence Efficacy Test 1
Description: (§2) Seeds of a variety of test species were sown in standard soil in pots: Solanum nigrum (SOLNI), Amaranthus retoflexus (AMARE), Setaria faberi (SETFA), Echinochloa crus-galli (ECHCG), Ipomoea hederacea (IPOHE), Lolium perenne (LOLPE). After cultivation for one day (pre-emergence) under controlled conditions in a glasshouse (at 24/16° C., day/night; 14 hours light; 65% humidity), the plants were sprayed with an aqueous spray solution derived from the formulation of the technical active ingredient in acetone/water (50:50) solution containing 0.5% Tween 20 (polyoxyethelyene sorbitan monolaurate, CAS RN 9005-64-5). Compounds are applied at 250 g/ha. The test plants were then grown in a glasshouse under controlled conditions (at 24/16° C., day/night; 14 hours light; 65% humidity) and watered twice daily. After 13 days, the test is evaluated for the percentage damage caused to the plant. The biological activities are assessed on a five point scale (5=80-100%; 4=60-79%; 3=40-59%; 2=20-39%; 1=0-19%). A blank value in the table is indicative that the compound was not tested on that species.

[8] = system: Echinochloa crus-galli (ECHCG); assay: B3 Pre-Emergence Efficacy Test 1
Description: as §2

Solanum nigrum (SOLNI) [9] = assay: B3 Pre-Emergence Efficacy Test 1
Description: as §2

Lolium perenne (LOLPE) [10] = assay: B3 Pre-Emergence Efficacy Test 1
Description: as §2

[11] = system: Amaranthus retoflexus (AMARE); assay: B3 Pre-Emergence Efficacy Test 1
Description: as §2

[12] = system: Ipomoea hederacea (IPOHE); assay: B3 Pre-Emergence Efficacy Test 1
Description: as §2

Cc1nn(C)c(=O)c(-c2c(F)ccc(Cl)c2CCc2ccnc3ccccc23)c1O [Compound 1.036]
5 (5=80-100%): percentage damage caused to the plant, five point scale, SETFA (Setaria faberi (SETFA) [1]) | percentage damage caused to the plant, five point scale, ECHCG [2] | percentage damage caused to the plant, five point scale, SOLNI (Solanum nigrum (SOLNI) [3]) | percentage damage caused to the plant, five point scale, LOLPE (Lolium perenne (LOLPE) [4]) | percentage damage caused to the plant, five point scale, AMARE [5] | percentage damage caused to the plant, five point scale, IPOHE [6] | percentage damage caused to the plant, five point scale, SETFA (Setaria faberi (SETFA) [7]) | percentage damage caused to the plant, five point scale, ECHCG [8] | percentage damage caused to the plant, five point scale, SOLNI (Solanum nigrum (SOLNI) [9]) | percentage damage caused to the plant, five point scale, LOLPE (Lolium perenne (LOLPE) [10]) | percentage damage caused to the plant, five point scale, AMARE [11] | percentage damage caused to the plant, five point scale, IPOHE [12]

Cc1ccc2cc(CCc3c(Cl)ccc(F)c3-c3c(OC(=O)C(C)C)c(C)nn(C)c3=O)ccc2n1 [Compound 3.034, [5-[3-chloro-6-fluoro-2-[2-(2-methyl-6-quinolyl)ethyl]phenyl]-1,3-dimethyl-6-oxo-pyridazin-4-yl] 2-methylpropanoate]
2 (2=20-39%): percentage damage caused to the plant, five point scale, IPOHE [12]
4 (4=60-79%): percentage damage caused to the plant, five point scale, ECHCG [2] | percentage damage caused to the plant, five point scale, AMARE [5] | percentage damage caused to the plant, five point scale, IPOHE [6]
5 (5=80-100%): percentage damage caused to the plant, five point scale, SETFA (Setaria faberi (SETFA) [1]) | percentage damage caused to the plant, five point scale, SOLNI (Solanum nigrum (SOLNI) [3]) | percentage damage caused to the plant, five point scale, LOLPE (Lolium perenne (LOLPE) [4]) | percentage damage caused to the plant, five point scale, SETFA (Setaria faberi (SETFA) [7]) | percentage damage caused to the plant, five point scale, ECHCG [8] | percentage damage caused to the plant, five point scale, SOLNI (Solanum nigrum (SOLNI) [9]) | percentage damage caused to the plant, five point scale, LOLPE (Lolium perenne (LOLPE) [10]) | percentage damage caused to the plant, five point scale, AMARE [11]

Cc1nn(C)c(=O)c(-c2c(F)ccc(Cl)c2CCc2ccc3c(c2)CCCN3)c1O [Compound 1.019]
5 (5=80-100%): percentage damage caused to the plant, five point scale, SETFA (Setaria faberi (SETFA) [1]) | percentage damage caused to the plant, five point scale, SOLNI (Solanum nigrum (SOLNI) [3]) | percentage damage caused to the plant, five point scale, LOLPE (Lolium perenne (LOLPE) [4]) | percentage damage caused to the plant, five point scale, IPOHE [6] | percentage damage caused to the plant, five point scale, SOLNI (Solanum nigrum (SOLNI) [9]) | percentage damage caused to the plant, five point scale, AMARE [11]
4 (4=60-79%): percentage damage caused to the plant, five point scale, AMARE [5] | percentage damage caused to the plant, five point scale, SETFA (Setaria faberi (SETFA) [7])
3 (3=40-59%): percentage damage caused to the plant, five point scale, ECHCG [2] | percentage damage caused to the plant, five point scale, LOLPE (Lolium perenne (LOLPE) [10])
1 (1=0-19%): percentage damage caused to the plant, five point scale, ECHCG [8] | percentage damage caused to the plant, five point scale, IPOHE [12]

Cc1nn(C)c(=O)c(-c2c(F)ccc(Cl)c2CCc2ccc3c(c2)CCC(C)N3)c1OC(=O)C(C)C (stereo not drawn) [Compound 3.030, [5-[3-chloro-6-fluoro-2-[2-(2-methyl-1,2,3,4-tetrahydroquinolin-6-yl)ethyl]phenyl]-1,3-dimethyl-6-oxo-pyridazin-4-yl] 2-methylpropanoate]
5 (5=80-100%): percentage damage caused to the plant, five point scale, SETFA (Setaria faberi (SETFA) [1]) | percentage damage caused to the plant, five point scale, ECHCG [2] | percentage damage caused to the plant, five point scale, SOLNI (Solanum nigrum (SOLNI) [3]) | percentage damage caused to the plant, five point scale, LOLPE (Lolium perenne (LOLPE) [4]) | percentage damage caused to the plant, five point scale, AMARE [5] | percentage damage caused to the plant, five point scale, IPOHE [6] | percentage damage caused to the plant, five point scale, SETFA (Setaria faberi (SETFA) [7]) | percentage damage caused to the plant, five point scale, ECHCG [8] | percentage damage caused to the plant, five point scale, SOLNI (Solanum nigrum (SOLNI) [9]) | percentage damage caused to the plant, five point scale, LOLPE (Lolium perenne (LOLPE) [10]) | percentage damage caused to the plant, five point scale, AMARE [11] | percentage damage caused to the plant, five point scale, IPOHE [12]

Cc1nn(C)c(=O)c(-c2c(F)ccc(Cl)c2/C=C/c2ccc3c(c2)OC(F)(F)O3)c1OC(=O)C(C)C [Compound 4.342]
0: percentage damage caused to the plant, five point scale, AMARE [5] | percentage damage caused to the plant, five point scale, SETFA (Setaria faberi (SETFA) [7]) | percentage damage caused to the plant, five point scale, ECHCG [8] | percentage damage caused to the plant, five point scale, LOLPE (Lolium perenne (LOLPE) [10])
4 (4=60-79%): percentage damage caused to the plant, five point scale, SOLNI (Solanum nigrum (SOLNI) [3])
3 (3=40-59%): percentage damage caused to the plant, five point scale, IPOHE [6] | percentage damage caused to the plant, five point scale, SOLNI (Solanum nigrum (SOLNI) [9])
2 (2=20-39%): percentage damage caused to the plant, five point scale, LOLPE (Lolium perenne (LOLPE) [4])
1 (1=0-19%): percentage damage caused to the plant, five point scale, SETFA (Setaria faberi (SETFA) [1]) | percentage damage caused to the plant, five point scale, ECHCG [2] | percentage damage caused to the plant, five point scale, AMARE [11] | percentage damage caused to the plant, five point scale, IPOHE [12]

Reference: patent US12540128B2, “Substituted pyridazinones as herbicides” (SYNGENTA CROP PROTECTION AG, priority 2019, dated 2026)
